# Reference: ChEMBL document CHEMBL1132808, “Solid-phase synthesis of di- and tripeptidic hydroxamic acids as inhibitors of procollagen C-proteinase” (Bioorg Med Chem Lett, 2000)
# Several values for one entry are separate records, joined by “and”; a condition that tells them apart may be missing. Equal values may be shown once. Where a SMILES comes first, the peptide text is derived from it. [ ]: non-standard residue; d: D form. The star is where a group is joined. ξ: configuration not given here. ξW = NC(Cc1c[nH]c2ccccc12)C(=O)O; Cbz = O=C(OCc1ccccc1)*; ξT = CC(O)C(N)C(=O)O; NHOH = ON*
# Biological target: T1, Bone morphogenetic protein 1 (Homo sapiens, UniProt P13497)
# T1 sequence (P13497 whole entry): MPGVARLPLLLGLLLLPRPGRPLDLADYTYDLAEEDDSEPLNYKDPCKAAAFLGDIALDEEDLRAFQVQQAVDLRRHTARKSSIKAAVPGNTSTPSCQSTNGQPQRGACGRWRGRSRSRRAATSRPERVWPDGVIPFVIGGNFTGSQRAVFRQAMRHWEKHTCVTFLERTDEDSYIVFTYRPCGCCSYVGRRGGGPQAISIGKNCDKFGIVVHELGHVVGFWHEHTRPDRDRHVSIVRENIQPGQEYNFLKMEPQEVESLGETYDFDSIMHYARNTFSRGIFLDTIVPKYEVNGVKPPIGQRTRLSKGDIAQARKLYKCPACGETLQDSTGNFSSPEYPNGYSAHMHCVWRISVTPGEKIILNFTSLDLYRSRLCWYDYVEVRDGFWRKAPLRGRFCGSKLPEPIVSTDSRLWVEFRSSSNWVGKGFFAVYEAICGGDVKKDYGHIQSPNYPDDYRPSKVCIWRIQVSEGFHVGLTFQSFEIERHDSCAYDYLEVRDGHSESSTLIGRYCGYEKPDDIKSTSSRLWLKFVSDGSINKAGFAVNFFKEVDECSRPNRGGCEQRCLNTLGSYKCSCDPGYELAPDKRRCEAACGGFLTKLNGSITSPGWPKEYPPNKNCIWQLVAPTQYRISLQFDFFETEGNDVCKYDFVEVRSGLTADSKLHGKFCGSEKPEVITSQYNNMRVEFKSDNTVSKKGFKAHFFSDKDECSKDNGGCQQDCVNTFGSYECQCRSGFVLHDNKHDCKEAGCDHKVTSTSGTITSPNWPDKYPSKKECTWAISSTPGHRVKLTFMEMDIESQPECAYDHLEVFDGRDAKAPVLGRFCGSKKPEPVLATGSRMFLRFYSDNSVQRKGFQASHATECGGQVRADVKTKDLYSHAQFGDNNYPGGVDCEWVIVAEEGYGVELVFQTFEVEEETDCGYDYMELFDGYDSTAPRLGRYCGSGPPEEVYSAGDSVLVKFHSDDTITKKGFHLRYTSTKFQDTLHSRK
# Test: Inhibitory effect against Procollagen C-terminal proteinase
row,SMILES,IC50
1,O=C(NC(Cc1c[nH]c2ccccc12)C(=O)NO)OCc1ccccc1 (stereo not given),67000 nM
2,CNC(=O)[C@H](CCC(N)=O)NC(=O)[C@H](CC(=O)O)CC(=O)NO,68000 nM
3,CC[C@@H](C)[C@@H](NC(=O)OCc1ccccc1)C(=O)N[C@H](Cc1ccccn1)C(=O)NO,220 nM
4,O=C(CCCNC(=O)OCc1ccccc1)N[C@@H](Cc1c[nH]c2ccccc12)C(=O)NO,19000 nM
5,CC[C@@H](C)[C@@H](NCN(Cc1ccc(F)cc1)C(=O)c1cccc(Cl)c1)C(=O)N[C@H](Cc1cscn1)C(=O)NO,53 nM
6,CC[C@H](C)[C@H](NS(=O)(=O)c1cc(C)c(Cl)cc1C)C(=O)N[C@@H](CNC(=O)OCc1ccccc1)C(=O)NO,67 nM
7,CC[C@@H](C)[C@@H](NCN(Cc1ccc(F)cc1)C(=O)c1cccc(C)c1)C(=O)N[C@H](Cc1cscn1)C(=O)NO,110 nM
8,CC[C@H](C)[C@H](NS(=O)(=O)c1ccc(Br)c(Br)c1)C(=O)N[C@@H](CNC(=O)OCc1ccccc1)C(=O)NO,26 nM
9,CC[C@H](C)[C@H](NS(=O)(=O)c1cc(Cl)ccc1Cl)C(=O)N[C@@H](CNC(=O)OCc1ccccc1)C(=O)NO,65 nM
10,CC(=O)N[C@@H](Cc1ccc(O)cc1)C(=O)NCC(=O)NO,280000 nM
11,CC[C@@H](C)[C@@H](NS(=O)(=O)C1=CCC(C)(Cl)C=C1C)C(=O)N[C@H](Cc1cscn1)C(=O)NO (stereo not given in full),43 nM
12,CC[C@@H](C)[C@@H](NC(=O)OCc1ccccc1)C(=O)N[C@H](Cc1ccc(Br)cc1)C(=O)NO,200 nM
13,CC(C)C(NC(=O)OCc1ccccc1)C(=O)N[C@H](Cc1c[nH]c2ccccc12)C(=O)NO (stereo not given in full),1900 nM
14,CC[C@@H](C)[C@@H](NC(=O)OCc1ccccc1)C(=O)NC(Cc1ccccc1Cl)C(=O)NO (stereo not given in full),190 nM
15,CCCC(NC(=O)OCc1ccccc1)C(=O)N[C@H](Cc1c[nH]c2ccccc12)C(=O)NO (stereo not given in full),870 nM
16,CC[C@H](C)[C@H](NS(=O)(=O)c1cc(Br)c(Br)s1)C(=O)NC(Cc1cscn1)C(=O)NO (stereo not given in full),32 nM
17,CC[C@@H](C)[C@@H](NS(=O)(=O)c1cc(Cl)c(Cl)cc1Cl)C(=O)N[C@H](Cc1cscn1)C(=O)NO,49 nM
18,CC[C@@H](C)[C@@H](NCN(Cc1ccc(F)cc1)C(=O)c1ccc(Br)cc1)C(=O)N[C@H](Cc1cscn1)C(=O)NO,89 nM
19,CC[C@@H](C)[C@H](NC(=O)C(Cc1ccc(F)cc1)NC(=O)OCc1ccccc1)C(=O)N[C@@H](Cc1cscn1)C(=O)NO (stereo not given in full),78 nM
20,O=C(N[C@@H](Cc1ccccc1)C(=O)N[C@@H](Cc1c[nH]c2ccccc12)C(=O)NO)OCc1ccccc1,17000 nM

row,SMILES,IC50
1,CC[C@@H](C)[C@H](NC(=O)C(Cc1c[nH]c2ccccc12)NC(=O)OCc1ccccc1)C(=O)N[C@@H](Cc1cscn1)C(=O)NO (stereo not given in full),67 nM
2,CC[C@@H](C)[C@@H](NC(=O)OCc1ccc(Cl)c(Cl)c1)C(=O)N[C@H](Cc1cscn1)C(=O)NO,73 nM
3,CC[C@H](C)[C@@H](NC(=O)Nc1ccccc1Cl)C(=O)N[C@H](Cc1cc2ccccc2[nH]1)C(=O)NO,5000 nM
4,CC[C@@H](C)[C@@H](NCN(Cc1ccc(F)cc1)C(=O)c1ccc(F)cc1)C(=O)N[C@H](Cc1cscn1)C(=O)NO,90 nM
5,CC[C@@H](C)[C@@H](NC(=O)OCc1ccccc1)C(=O)N[C@H](Cc1cnc[nH]1)C(=O)NO,250 nM
6,O=C(NC(C(=O)N[C@H](Cc1c[nH]c2ccccc12)C(=O)NO)c1ccccc1)OCc1ccccc1 (stereo not given in full),1200 nM
7,CC[C@@H](C)[C@@H](NCN(Cc1ccc(F)cc1)C(=O)c1ccc(C(C)(C)C)cc1)C(=O)N[C@H](Cc1cscn1)C(=O)NO,140 nM
8,CC[C@@H](C)[C@H](NC(=O)C(COCc1ccccc1)NC(=O)OCc1ccccc1)C(=O)N[C@@H](Cc1cscn1)C(=O)NO (stereo not given in full),78 nM
9,CC[C@@H](C)[C@@H](NC(=O)OCc1ccccc1)C(=O)NCC(NC(=O)OCc1ccccc1)C(=O)NO (stereo not given in full),61 nM
10,CC[C@@H](C)[C@@H](NS(=O)(=O)c1ccc(Br)c(Br)c1)C(=O)N[C@H](Cc1cscn1)C(=O)NO,30 nM
11,CC[C@@H](C)[C@@H](NC(=O)OCc1ccccc1)C(=O)N[C@H](Cc1ccc(Br)s1)C(=O)NO,210 nM
12,CNC(=O)C1CCCN1C(=O)[C@H](CCC(N)=O)NC(=O)[C@H](CC(=O)O)CC(=O)NO (stereo not given in full),22000 nM
13,CC[C@H](C)[C@H](NS(=O)(=O)c1cc(Br)c(Br)s1)C(=O)N[C@@H](CNC(=O)OCc1ccccc1)C(=O)NO,52 nM
14,CC[C@@H](C)[C@H](NC(=O)C(CCSC)NC(=O)OCc1ccccc1)C(=O)N[C@@H](Cc1cscn1)C(=O)NO (stereo not given in full),43 nM
15,O=C(N[C@H](Cc1ccc(O)cc1)C(=O)N[C@@H](Cc1c[nH]c2ccccc12)C(=O)NO)OCc1ccccc1,20000 nM
16,CC[C@@H](C)[C@@H](NC(=O)OCc1ccccc1)C(=O)NC(Cc1ccc(OC(C)(C)C)cc1)C(=O)NO (stereo not given in full),130 nM
17,CC[C@H](C)[C@@H](NC(=O)NCCc1ccccc1)C(=O)N[C@H](Cc1cc2ccccc2[nH]1)C(=O)NO,3600 nM
18,CC[C@@H](C)[C@@H](NS(=O)(=O)c1cc(Cl)ccc1Cl)C(=O)N[C@H](Cc1cscn1)C(=O)NO,29 nM
19,CC[C@H](C)[C@@H](Nc1cccc(C(F)(F)F)c1)C(=O)N[C@H](Cc1cc2ccccc2[nH]1)C(=O)NO,2800 nM
20,CC[C@@H](C)[C@@H](NC(=O)OCc1cc(Cl)cc(Cl)c1)C(=O)N[C@H](Cc1cscn1)C(=O)NO,150 nM

row,SMILES,IC50
1,CC[C@@H](C)[C@@H](NC(=O)OCc1cccc(C(F)(F)F)c1)C(=O)N[C@H](Cc1cscn1)C(=O)NO,90 nM
2,O=C(N[C@H](Cc1ccccc1)C(=O)N[C@@H](Cc1c[nH]c2ccccc12)C(=O)NO)OCc1ccccc1,18000 nM
3,CC[C@@H](C)[C@H](NC(=O)C(CC(C)C)NC(=O)OCc1ccccc1)C(=O)N[C@@H](Cc1cscn1)C(=O)NO (stereo not given in full),110 nM
4,CC[C@H](C)[C@@H](NC(=O)Nc1cc(Cl)cc(Cl)c1)C(=O)N[C@H](Cc1cc2ccccc2[nH]1)C(=O)NO,5100 nM
5,CC[C@H](C)[C@@H](NC(=O)OCc1ccccc1)C(=O)N[C@H](Cc1c[nH]c2ccccc12)C(=O)NO,730 nM
6,CC[C@H](C)[C@@H](NC(=O)Nc1ccccc1[N+](=O)[O-])C(=O)N[C@H](Cc1cc2ccccc2[nH]1)C(=O)NO,2100 nM
7,CC[C@@H](C)[C@@H](NC(=O)OCc1ccccc1)C(=O)NCC(NCc1ccccc1)C(=O)NO (stereo not given in full),94 nM
8,CC[C@H](C)[C@@H](Nc1ccc(Cl)c(Cl)c1)C(=O)N[C@H](Cc1cc2ccccc2[nH]1)C(=O)NO,750 nM
9,O=C(O)CCC(NC(=O)OCc1ccccc1)C(=O)N[C@H](Cc1c[nH]c2ccccc12)C(=O)NO (stereo not given in full),3000 nM
10,CC[C@@H](C)[C@@H](NC(=O)OCc1ccccc1)C(=O)NC(Cc1ccc(-c2ccccc2)cc1)C(=O)NO (stereo not given in full),200 nM
11,CC[C@@H](C)[C@@H](NC(=O)OCc1ccccc1)C(=O)N[C@H](Cc1ccc([N+](=O)[O-])cc1)C(=O)NO,200 nM and 220 nM
12,CC[C@@H](C)[C@@H](NC(=O)OCc1ccccc1Br)C(=O)N[C@H](Cc1cscn1)C(=O)NO,78 nM
13,CC[C@@H](C)[C@@H](NCN(Cc1ccc(F)cc1)C(=O)c1ccc(Cl)cc1)C(=O)N[C@H](Cc1cscn1)C(=O)NO,50 nM
14,CC[C@@H](C)[C@H](NC(=O)C(Cc1ccccc1)NC(=O)OCc1ccccc1)C(=O)N[C@@H](Cc1cscn1)C(=O)NO (stereo not given in full),44 nM
15,CC(=O)N[C@@H](CCCNC(=N)N)C(=O)N[C@@H](C)C(=O)NO (Ac-Arg-Ala-{NHOH}),> 800000 nM
16,CC(=O)N[C@@H](Cc1ccc(O)cc1)C(=O)N[C@@H](Cc1ccc(O)cc1)C(=O)NCC(=O)NO (Ac-Tyr-Tyr-Gly-{NHOH}),65000 nM
17,CC(O)C(NC(=O)OCc1ccccc1)C(=O)N[C@@H](Cc1c[nH]c2ccccc12)C(=O)NO (stereo not given in full) (Cbz-[ξT]-Trp-{NHOH}),15000 nM
18,O=C(NC(Cc1c[nH]c2ccccc12)C(=O)N[C@@H](Cc1c[nH]c2ccccc12)C(=O)NO)OCc1ccccc1 (stereo not given in full) (Cbz-[ξW]-Trp-{NHOH}),19000 nM
19,CC[C@@H](C)[C@@H](NC(=O)OCc1ccccc1)C(=O)N[C@H](Cc1cscn1)C(=O)NO (stereo in doubt; form 1),110 nM
20,CC[C@@H](C)[C@@H](NC(=O)OCc1ccccc1)C(=O)N[C@H](Cc1cscn1)C(=O)NO (stereo in doubt; form 2),110 nM
